Measured values as given in patent US20240317827A1, “LINEAR PEPTIDES INHIBITING CK2-MEDIATED PHOSPHORYLATION AND COMPOSITIONS COMPRISING SAME” (CENTRO DE INGENIERÍA GENÉTICA Y BIOTECNOLOGÍA, priority 2021, published 2024).
Like-named read-outs stand apart in the source and are kept apart here. Where a SMILES comes first, the peptide text is derived from it. Bridges are numbered along the chain shown (N, C = ends). [ ]: non-standard residue; d: D form. βAla = NCCC(=O)O

What was measured:
[1] = target: phosphoacceptor site of the CK2 enzyme in the E7 protein of HPV-16 (BIOT peptide, […]) (Human papillomavirus type 16, UniProt P03129); conditions: peptide coupled to resin; BIOT peptide 120 μg/mL; streptavidin-alkaline phosphatase, BCIP
Description: For the identification of bioactive linear peptides that interact with the phosphoacceptor site of the CK2 enzyme, a combinatorial library of synthetic linear peptides named BCP-1 by type of “one-bead-one-compound” was screened, containing more than 16 million of different peptide sequences. […] Screening was performed with a biotinylated synthetic peptide, called BIOT, which contains the phosphoacceptor site of the CK2 enzyme in the E7 substrate of HPV-16 ([sequence], identified as SEQ ID NO: 63). The streptavidin-alkaline phosphatase conjugate was used as recognition molecule, and p-toluidine salt of 5-bromo-4-chloro-3-indolyl-phosphate (BCIP) was used as substrate for development. The blue color facilitates the visual differentiation of the beads containing bioactive sequences recognized by the BIOT peptide, compared to the bright light yellow color of the TentaGel resin at the BCP-1 library.
The BCP-1 library was placed in a polypropylene reactor with a vacuum filtration system and mechanical agitation. It was washed with purified water and saline phosphate buffer solution (PBS) pH 7.4; and blocked with 1% bovine serum albumin (BSA) in PBS pH 7.4 for one hour. Solvents and reagents were removed by vacuum filtration. The library was incubated with 80 mL of a BIOT peptide solution at 150 g/mL in 1% BSA in PBS pH 7.4, for 16 h at 4° C. […]

[2] = system: cell proliferation in vitro; conditions: literature value; read-out: mean maximum inhibitory concentration (IC50), cell proliferation in vitro; cited from earlier work
[3] = target: T1, CK2-mediated phosphorylation of the HPV-16 E7 oncoprotein (Human papillomavirus type 16, UniProt P03129); assay: in vitro phosphorylation reaction, E7 oncoprotein (GST fusion) as substrate; assay type: biochemical; conditions: procedure of Example 2
T1 construct: Glutathione S-Transferase (GST); made in house; host or cells: Escherichia coli
Description: The assay to measure the effect of these peptides on the CK2-mediated phosphorylation of the HPV-16 E7 oncoprotein, was based on an in vitro phosphorylation reaction, where the E7 oncoprotein of HPV-16 expressed in Escherichia coli was used as substratum. This oncoprotein was obtained as a fusion protein to Glutathione S-Transferase. The assay was performed according to the procedure previously described. (Perea S. E., et al., 2004, Cancer Res., 64: 7127-7129). The results are shown in FIG. 1, and indicate that the peptides identified as SEQ ID NO: 1-SEQ ID NO: 9 are capable of inhibiting CK2-mediated phosphorylation of the E7 protein of HPV-16.

[4] = system: NCI-H125 cell line (non-small cell lung cancer); assay: cell proliferation assay, NCI-H125 line; assay type: cell-based
Description: The evaluation of the antiproliferative activity of polypeptides F11P13-F11P21 (SEQ ID NO: 12-SEQ ID NO: 20) was performed on the NCI-H125 cell line. […] The antiproliferative effect of the CIGB-300 peptide has been widely characterized in this line (Cirigliano S. M., et al., 2017, Cancer Cell International, 17, 42), therefore, it was selected as a positive control. Tat peptide was used as a negative control. The polypeptides were evaluated at the concentrations of 25, 50, 100 and 200 μM. The cell proliferation assay was performed by a previously described procedure (Perera Y., et al., 2012, J. Pept. Sci, 18 (4):215-23).
The 24 polypeptides identified as SEQ ID NO: 21-SEQ ID NO: 44 maintained the ability to inhibit the phosphorylation of the E7 protein of HPV-16, mediated by CK2, since phosphorylation inhibition values between 60-85% were obtained. […] Evaluation of the antiproliferative activity of synthetic polypeptides generated by positional scanning of Trp (SEQ ID NO: 21-SEQ ID NO: 44) was performed on the NCI-H125 cell line. The test was performed by the procedure previously described. (Perera Y., et al., 2012, J. Pept. Sci, 18 (4): 215-23). Precursor polypeptides (F11P19, F11P20, F11P21) and peptide CIGB-300 were included as positive controls. The polypeptides were evaluated at the concentrations of 12.5; 25; fifty; 100 and 200 μM.
(§1) The evaluation of the antiproliferative activity of synthetic polypeptides A15P35, A15P36 and A15P37 (SEQ ID NO: 46-SEQ ID NO: 48) was performed on the NCI-H125, AsPC-1, PanC-1 (pancreatic carcinoma) and OCI-AML3 (acute myeloid leukemia-3) cell lines. The test was carried out according to the procedure previously described (Perera Y, et al., 2012, J. Pept. Sci, 18 (4):215-23). […] The polypeptides A15P35, A15P36 and A15P37 were able to produce a dose-dependent effect on the proliferation of NCI-H125 cells.
(§2) Antiproliferative assays were performed on the NCI-H125, Hep2C (laryngeal carcinoma) cell lines, and on two bladder cancer lines (MGH-U3 and MGH-U4). The test was carried out according to the procedure previously described (Perera Y., et al, 2012, Pept. Sci, 18 (4):215-23).

[5] = system: AsPC-1 cell line (pancreatic adenocarcinoma); assay type: cell-based
Description: The cell proliferation assay was performed following the procedure previously described (Perera Y, et al., 2012, J. Pept. Sci, 18 (4):215-23).
as §1

[6] = system: PanC-1 (pancreatic carcinoma) cell line; assay: cell proliferation assay, PanC-1 line; assay type: cell-based; conditions: Table 7
Description: as §1

[7] = system: OCI-AML3 (acute myeloid leukemia-3) cell line; assay: cell proliferation assay, OCI-AML3 line; assay type: cell-based; conditions: Table 7
Description: as §1

[8] = system: Hep2C (laryngeal carcinoma) cell line; assay: cell proliferation assay, Hep2C line; assay type: cell-based; conditions: Table 9
Description: as §2

[9] = system: MGH-U3 bladder cancer line; assay: cell proliferation assay, MGH-U3 line; assay type: cell-based, human; conditions: Table 9
Description: as §2

[10] = system: MGH-U4 bladder cancer line; assay: cell proliferation assay, MGH-U4 line; assay type: cell-based; conditions: Table 9
Description: as §2

[11] = target: T2, E7 oncoprotein of HPV-16 expressed in Escherichia coli as a fusion protein to Glutathione S-Transferase (Human Papillomavirus (HPV)-16, UniProt P03129 1-98); assay: cell-based or functional assay
T2 sequence: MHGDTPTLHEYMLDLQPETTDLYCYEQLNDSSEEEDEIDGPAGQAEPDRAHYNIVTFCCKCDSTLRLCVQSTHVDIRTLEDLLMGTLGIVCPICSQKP

[12] = Table 7, read-out: IC50 (μM) NCI-H125

VAGFFLDP [P11]
blue color development after enzymatic assay (interaction with the CK2 phosphoacceptor site) [1]: did not develop blue coloration

O=C(O)c1ccc2c(c1)nc(Nc1cccc(Cl)c1)c1ccncc12 [CX-4945]
IC50 [2]: 5.5 µM

CSCC[C@@H]1NC(=O)[C@H](Cc2c[nH]c3ccccc23)NC(=O)[C@@H](NC(=O)CCNC(=O)[C@H](CCC(N)=O)NC(=O)[C@@H]2CCCN2C(=O)[C@@H]2CCCN2C(=O)[C@H](CCCNC(=N)N)NC(=O)[C@H](CCCNC(=N)N)NC(=O)[C@H](CCCNC(=N)N)NC(=O)[C@H](CCC(N)=O)NC(=O)[C@H](CCCNC(=N)N)NC(=O)[C@H](CCCNC(=N)N)NC(=O)[C@H](CCCCN)NC(=O)[C@H](CCCCN)NC(=O)[C@H](CCCNC(=N)N)NC(=O)CN)CSSC[C@@H](C(N)=O)NC(=O)[C@H]([C@@H](C)O)NC(=O)CNC(=O)[C@H](CC(C)C)NC(=O)[C@H](Cc2c[nH]cn2)NC(=O)[C@H](CCCNC(=N)N)NC(=O)[C@@H]2CCCN2C(=O)[C@H](CO)NC1=O [CIGB-300, cycle (Cys15-Cys25) GRKKRRQRRRPPQ-βA-CWMSPRHLGTC, reference compound] (H-GRKKRRQRRRPPQ[βAla]CWMSPRHLGTC-NH2; disulfide 15-25; N-terminus and C-terminus assumed)
phosphorylation inhibition [3]: 87% | percentage of inhibition of proliferation ([4]; NCI-H125, evaluated at 25, 50, 100 and 200 μM, concentration not given): 50% | IC50 ([4]; NCI-H125, read-out: IC50 (dose-effect curves)): 64 µM | IC50 [4, 12]: 64 µM | IC50 ([4]; Table 9, read-out: IC50 (μM) NCl-H125): 64 µM | IC50 ([5]; AsPC-1, read-out: IC50): 102 µM | IC50 [6]: 156 µM | IC50 [7]: 63 µM | IC50 [8]: 61 µM | IC50 [9]: 327 µM | IC50 [10]: 335 µM

RKRSWYWP [D15P106]
phosphorylation inhibition [3]: 82%

EQPAFHDP [P10]
blue color development after enzymatic assay (interaction with the CK2 phosphoacceptor site) [1]: did not develop blue coloration

RKRWRYWP [D15P105]
phosphorylation inhibition [3]: 87%

N=C(N)NCCC[C@H](NC(=O)CN)C(=O)N[C@@H](CCCCN)C(=O)N[C@@H](CCCCN)C(=O)N[C@@H](CCCNC(=N)N)C(=O)N[C@@H](CCCNC(=N)N)C(=O)N[C@@H](CCC(N)=O)C(=O)N[C@@H](CCCNC(=N)N)C(=O)N[C@@H](CCCNC(=N)N)C(=O)N[C@@H](CCCNC(=N)N)C(=O)N1CCC[C@H]1C(=O)N1CCC[C@H]1C(=O)N[C@@H](CCC(N)=O)C(=O)NCCC(=O)N[C@@H](Cc1c[nH]c2ccccc12)C(=O)N[C@@H](CCCCN)C(=O)N[C@@H](CCCNC(=N)N)C(=O)N[C@@H](CO)C(=O)N[C@@H](CCCNC(=N)N)C(=O)N[C@@H](Cc1ccc(O)cc1)C(=O)N[C@@H](Cc1c[nH]c2ccccc12)C(=O)N1CCC[C@H]1C(N)=O [A15P35, GRKKRRQRRRPPQ-βA-WKRSRYWP] (H-GRKKRRQRRRPPQ[βAla]WKRSRYWP-NH2; N-terminus and C-terminus assumed)
IC50 [4, 12]: 106 µM | IC50 ([5]; Table 7, read-out: IC50 (μM) AsPC-1): 127 µM | IC50 [6]: 145 µM | IC50 [7]: 130 µM

RKRSRYWP [D14P165]
phosphorylation inhibition [3]: 85%

B1: peptide D14P165 (RKRSRYWP) (peptide)
peptide: RKRSRYWP
inhibition of CK2-mediated phosphorylation of HPV-16 E7 (in vitro phosphorylation reaction, GST-E7 substrate) [11]: 85%

B2: peptide D15P106 (RKRSWYWP) (peptide)
peptide: RKRSWYWP
inhibition of CK2-mediated phosphorylation of HPV-16 E7 (in vitro phosphorylation reaction, GST-E7 substrate) [11]: 82%

B3: peptide D15P105 (RKRWRYWP) (peptide)
peptide: RKRWRYWP
inhibition of CK2-mediated phosphorylation of HPV-16 E7 (in vitro phosphorylation reaction, GST-E7 substrate) [11]: 87%
